According to ChEMBL document CHEMBL1122495, “Ultra-short-acting beta-adrenergic receptor blocking agents. 3. Ethylenediamine derivatives of (aryloxy)propanolamines having esters on the aryl function” (J Med Chem, 1983):

Legend:
Cavia porcellus [1] = species on record: Cavia porcellus; assay: Inhibition of isoproterenol-induced responses in guinea pig trachea.; type: functional; details: read-out: pA2 (converted)
Canis lupus familiaris = assay: Time for 80% recovery from 50% blockade levels after 3-h infusions of drug(in vivo)
Cavia porcellus [2] = species on record: Cavia porcellus; assay: Negative log concentration effecting 50% blockade of isoproterenol-induced rate responses in vitro in guinea pig right atria.; type: functional; details: read-out: pA2 (converted)
Cavia porcellus [3] = species on record: Cavia porcellus; assay: Cardioselectivity determined (Antilog [pA2 (atria) - pA2 (trachea)] )
Cavia porcellus [4] = assay: Less than 80% recovery from 50% blockade levels after 3-h infusions of drug(in vivo)
Cavia porcellus [5] = species on record: Cavia porcellus; assay: No blockade was observed at 10 e-6 M in guinea pig right atria (In vitro); type: functional; details: read-out: pA2 (converted)

Compound: COC(=O)c1ccccc1OCC(O)CNCCc1ccc(OC)c(OC)c1 (configuration not stated)
- Kb (Cavia porcellus [1]): 79.4 nM
- Duration (Canis lupus familiaris): 30 min

Compound: CCOC(=O)NCC(C)(C)NCC(O)COc1ccccc1C(=O)OC (configuration not stated)
- Kb (Cavia porcellus [2]): 2.51 nM
- Kb (Cavia porcellus [1]): 6.31 nM
- Selectivity (Cavia porcellus [3]): 2.5
- Duration (Canis lupus familiaris): 30 min

Compound: Cc1ccccc1OCC(O)CNC(C)C (configuration not stated)
- Kb (Cavia porcellus [2]): 2.51 nM
- Kb (Cavia porcellus [1]): 6.31 nM
- Selectivity (Cavia porcellus [3]): 2.5
- Duration (Cavia porcellus [4]): >60 min

Compound: COC(=O)c1ccccc1OCC(O)CNCCNC(=O)C(C)C (configuration not stated)
- Kb (Cavia porcellus [2]): 7.94 nM
- Kb (Cavia porcellus [1]): 31.6 nM
- Selectivity (Cavia porcellus [3]): 4
- Duration (Canis lupus familiaris): 17 min

Compound: COC(=O)c1ccccc1OCC(O)CNCCNC(C)=O (configuration not stated)
- Kb (Cavia porcellus [2]): 50.1 nM
- Kb (Cavia porcellus [1]): 100 nM
- Selectivity (Cavia porcellus [3]): 2
- Duration (Canis lupus familiaris): 18 min

Compound: COC(=O)c1ccccc1OCC(O)CNCCNC(=O)Cc1ccccc1 (configuration not stated)
- Kb (Cavia porcellus [2]): 5.01 nM
- Kb (Cavia porcellus [1]): 20 nM
- Selectivity (Cavia porcellus [3]): 4
- Duration (Canis lupus familiaris): 42 min

Compound: COC(=O)c1ccc(OCC(O)CNCCN2CCCCC2)cc1 (configuration not stated)
- Kb (Cavia porcellus [5]): > 1000 nM

Compound: COC(=O)c1ccccc1OCC(O)CNCc1nc2ccccc2[nH]1 (configuration not stated)
- Kb (Cavia porcellus [2]): 316 nM

Compound: COC(=O)c1ccc(OCC(O)CNCCN2CCCC2)cc1 (configuration not stated)
- Kb (Cavia porcellus [5]): > 1000 nM

Compound: COC(=O)c1ccccc1OCC(O)CNC(C)(C)CNS(=O)(=O)c1ccccc1 (configuration not stated)
- Kb (Cavia porcellus [1]): 1.58 nM

Compound: CCOC(=O)N1CCC(=NCC(O)COc2ccccc2C(=O)OC)CC1 (configuration not stated)
- Kb (Cavia porcellus [2]): > 1000 nM

Compound: COC(=O)c1ccc(OCC(O)CNC(C)C)cc1 (configuration not stated)
- Kb (Cavia porcellus [1]): 3160 nM

Compound: COC(=O)c1ccccc1OCC(O)CNC(C)(C)CNC(=O)N1CCOCC1 (configuration not stated)
- Kb (Cavia porcellus [2]): 0.2 nM
- Kb (Cavia porcellus [1]): 1 nM
- Selectivity (Cavia porcellus [3]): 5
- Duration (Cavia porcellus [4]): >60 min

Compound: COC(=O)c1ccccc1OCC(O)CNCCNc1ccc([N+](=O)[O-])cn1 (configuration not stated)
- Kb (Cavia porcellus [2]): 31.6 nM
- Kb (Cavia porcellus [1]): 79.4 nM
- Selectivity (Cavia porcellus [3]): 2.5
- Duration (Canis lupus familiaris): 15 min

Compound: COC(=O)c1ccccc1OCC(O)CNCCNS(=O)(=O)c1ccc(C)cc1 (configuration not stated)
- Kb (Cavia porcellus [2]): 158 nM
- Kb (Cavia porcellus [1]): 79.4 nM

Compound: COC(=O)c1ccccc1OCC(O)CNC(C)C (configuration not stated)
- Kb (Cavia porcellus [2]): 5.01 nM
- Kb (Cavia porcellus [1]): 12.6 nM
- Selectivity (Cavia porcellus [3]): 2.5
- Duration (Canis lupus familiaris): 15 min

Compound: Cc1ccccc1OCC(O)CNCCNC(=O)C(C)C (configuration not stated)
- Kb (Cavia porcellus [2]): 5.01 nM
- Kb (Cavia porcellus [1]): 20 nM
- Selectivity (Cavia porcellus [3]): 4
- Duration (Cavia porcellus [4]): >60 min

Compound: COC(=O)c1ccc(OCC(O)CNCCN2CCOCC2)cc1 (configuration not stated)
- Kb (Cavia porcellus [5]): > 1000 nM

Compound: COC(=O)c1ccccc1OCC(O)CNC(C)(C)CNC(N)=O (configuration not stated)
- Kb (Cavia porcellus [2]): 1.26 nM
- Kb (Cavia porcellus [1]): 3.16 nM
- Selectivity (Cavia porcellus [3]): 2.5
- Duration (Canis lupus familiaris): >60 min

Compound: COC(=O)c1ccccc1OCC(O)CNCCNC(=O)Nc1ccccc1 (configuration not stated)
- Kb (Cavia porcellus [2]): 7.94 nM
- Kb (Cavia porcellus [1]): 200 nM
- Selectivity (Cavia porcellus [3]): 25.1
- Duration (Cavia porcellus [4]): >60 min

Compound: COC(=O)/C=C/c1ccccc1OCC(O)CNCCNC(=O)C(C)C (configuration not stated)
- Kb (Cavia porcellus [2]): 0.398 nM
- Kb (Cavia porcellus [1]): 0.794 nM
- Selectivity (Cavia porcellus [3]): 2
- Duration (Cavia porcellus [4]): >60 min

Compound: CC(C)NCC(O)COc1cccc2ccccc12 (configuration not stated) [PROPRANOLOL]
- Duration (Cavia porcellus [4]): >60 min

Compound: COC(=O)c1ccccc1OCC(O)CNCCNc1cc(Cl)c2ccccc2c1O (configuration not stated)
- Kb (Cavia porcellus [2]): 631 nM

Compound: COC(=O)c1ccccc1OCC(O)CNC(C)(C)C (configuration not stated)
- Duration (Canis lupus familiaris): 22 min

Compound: COC(=O)c1ccccc1OCC(O)CNCCNS(=O)(=O)N(C)C (configuration not stated)
- Kb (Cavia porcellus [2]): 31.6 nM
- Kb (Cavia porcellus [1]): 50.1 nM
- Duration (Canis lupus familiaris): 15 min

Compound: COC(=O)c1ccccc1OCC(O)CN=C1CCN(C=O)CC1 (configuration not stated)
- Kb (Cavia porcellus [2]): > 1000 nM

Compound: CCOC(=O)c1ccccc1OCC(O)CNCCNC(=O)C(C)C (configuration not stated)
- Kb (Cavia porcellus [2]): 3.16 nM
- Kb (Cavia porcellus [1]): 20 nM
- Selectivity (Cavia porcellus [3]): 6.3
- Duration (Canis lupus familiaris): 40 min

Compound: COC(=O)CCc1ccccc1OCC(O)CNCCNC(=O)C(C)C (configuration not stated)
- Kb (Cavia porcellus [2]): 25.1 nM
- Kb (Cavia porcellus [1]): 20 nM
- Duration (Cavia porcellus [4]): >60 min

Compound: CCOC(=O)c1ccccc1OCC(O)CNC(C)(C)CNC(N)=O (configuration not stated)
- Kb (Cavia porcellus [2]): 0.126 nM
- Kb (Cavia porcellus [1]): 0.501 nM
- Selectivity (Cavia porcellus [3]): 4
- Duration (Cavia porcellus [4]): >60 min
